Key:
[1] = Blood-brain barrier penetration: brain versus liver concentrations; format: in vivo; conditions: brain vs liver
[2] = tested on: DIO mice; assay: 28-day treatment of diet-induced obesity (DIO) mice; format: in vivo, mouse
Experimental: We performed in vivo testing in DIO mice (for 7- and 28-day treatment), an established model designed to study high-fat-diet-induced hepatic steatosis and associated cardiometabolic traits. We established DIO in four-week-old C57BL/6N male mice that were fed a high-fat diet (HFD, 60 kcal% fat, D12492; Research Diets, Inc.; New Brunswick, NJ, USA) until 11 weeks of age.
Mice were housed at a temperature of 22–24 °C, with a day/night cycle of 12/12 h (07:00-19:00–07:00) and had access to the appropriate diet and tap water ad libitum. Animals allocated to the pair-feeding group were fed the same amount of food as the corresponding treatment group had consumed the day before. Food was only withdrawn for overnight fasting on the penultimate study day before the section on the final day. We randomised groups of n = 12 for treatment and n = 8 for pair-feeding cage-wise according to random fed blood glucose levels and body weight before the study treatment was started. For all animals, the high-fat diet was started at the same age.
We treated DIO mice with the inhibitor or corresponding vehicle (5% DMSO/10% Cremophor® EL/85% water) twice a day at the same time by oral gavage according to their grouping (5, 15, and 50 mg/kg dose groups, and vehicle control groups). During the study, we measured body weight and blood glucose. We measured glucose concentrations in tail tip blood samples with the “Accu-Chek® Performa” glucometer (Roche, Basel, Switzerland, range <33.3 mmol/L). We determined random fed blood glucose and fasting blood glucose after overnight fasting.
An intraperitoneal glucose tolerance test was performed after an overnight fasting period. Mice were injected with 1g/kg glucose and blood glucose was measured over a period of 180 min.
At the end of study day 28, we obtained blood and liver samples. In anesthetised animals, we collected retro-orbital blood samples in non-coated tubes (Sarstedt, Inc., Nümbrecht, Germany). Then, we sacrificed animals by cervical dislocation. We dissected and weighed the livers and immediately froze liver samples in liquid nitrogen for further analysis.
For serum sample generation, we centrifuged blood at 4000× g for 10 min and dispensed serum samples into a 110 µL plus an additional aliquot. Samples were stored at −80 °C. For Piccolo® system (Abaxis, Inc., Union City, CA, USA) analysis (lipid panel including triglycerides and cholesterol), we used a 110 µL serum aliquot.
The frozen tissue from liver samples were used to determine the triglyceride content via triglyceride assay according to the manufacturer’s protocol (Sigma-Aldrich, Cat.No.TR0100) using glycerol as a standard (Sigma-Aldrich, Glycerol G7793, St. Louis, MO, USA).
We determined body composition in mice using the non-invasive Bruker Minispec Instrument MQ 10 NMR Analyser (Bruker, Billerica, MA, USA). We placed mice in a clear, plastic cylinder and kept them immobile by inserting a tight-fitting plunger into the cylinder. For scanning, the tube was placed in the sample chamber for approximately one minute. Body composition was calculated and related to whole body weight.
We isolated total RNA from individual liver samples from all animals in 1.5 mL Trizol reagent (Life Technologies, Carlsbad, CA, USA) at 4 °C according to the manufacturer’s instructions. Then, we purified total RNA utilising the RNeasy Mini Kit (Qiagen, Hilden, Germany) with DNase-treatment to completely remove genomic DNA according to the instructions of the manufacturer. Subsequently, RNA was reverse transcribed using Superscript II RnaseH Reverse Transcriptase (Life Technologies) and subjected to Taqman analysis using the Taqman Fast Advanced Master Mix (Applied Biosystems, Weiterstadt, Germany). The Mix contains AmpliTaq® Fast DNA Polymerase, AmpErase UNG, dNTPs with dUTP, passive reference Rox and optimised buffer components. Quantitative PCR was performed in the Quantstudio 7 Flex System (Applied Biosystems, Weiterstadt, Germany). […]

[3] = target: T1, human NaCT (Homo sapiens, UniProt Q86YT5); assay: [14C] citrate uptake in HepG2 cells endogenously expressing human NaCT; format: cell-based
T1 construct: citrate uptake into HepG2 cells, which endogenously expressed NaCT; host or cells: HepG2
T1 sequence (Q86YT5 whole entry): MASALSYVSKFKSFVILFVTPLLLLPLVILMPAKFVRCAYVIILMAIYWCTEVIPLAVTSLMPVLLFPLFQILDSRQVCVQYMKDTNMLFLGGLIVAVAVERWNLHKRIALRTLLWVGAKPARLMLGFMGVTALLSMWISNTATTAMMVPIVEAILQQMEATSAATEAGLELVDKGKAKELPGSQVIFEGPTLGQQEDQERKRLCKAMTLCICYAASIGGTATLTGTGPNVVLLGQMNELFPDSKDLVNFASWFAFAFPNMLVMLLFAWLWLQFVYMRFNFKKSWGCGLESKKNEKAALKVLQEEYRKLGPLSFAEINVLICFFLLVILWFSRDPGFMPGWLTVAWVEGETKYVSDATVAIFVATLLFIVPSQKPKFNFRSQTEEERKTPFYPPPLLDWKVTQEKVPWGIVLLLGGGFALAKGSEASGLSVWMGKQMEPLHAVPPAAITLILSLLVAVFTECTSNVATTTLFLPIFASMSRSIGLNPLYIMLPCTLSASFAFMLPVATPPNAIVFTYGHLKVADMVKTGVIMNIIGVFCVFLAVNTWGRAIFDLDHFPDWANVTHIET
Text: We determined activity on human NaCT by measuring citrate uptake into HepG2 cells, which endogenously expressed NaCT [37] and for mouse Nact, using HEK293 cells recombinantly expressing mouse Nact (HEK-Nact). We cloned the mouse Slc13a5 cDNA encoding Nact as described previously.
For radiometric [14C] citrate uptake assays, we used Cytostar-T plates (Perkin Elmer#RPNQ0166, Waltham, MA, USA). For each assay, we seeded 20,000 HepG2 cells per well on collagen coated 384-well Cytostar-T plates or 5000 HEK293 cells per well on ploy-D-lysine coated 384-well Cytostar-T plates. On the following day, we changed culture medium to assay buffer: 120 mM NaCl, 5.4 mM KCl, 0.8 mM MgSO4, 5 mM glucose, 1.8 mM CaCl2, 25 mM Hepes, 25 mM MES, pH 6.5 (human) and pH 7.5 (mouse). We preincubated cells with compounds at 37 °C for 20 min, after which we added [14C] citrate (3 µM for HEK cells and 10 µM for HepG2 cells) and incubated cells for 50 min at 37 °C. After cooling down for 15 min at 4 °C, we measured the counts using a Microbeta2 reader system (Perkin Elmer).

[4] = 15 mg/kg oral twice daily, 28 days
[5] = 15 mg/kg oral twice daily, 28 days, p < 0.001
[6] = 15 mg/kg oral twice daily, 28 days, p < 0.01
[7] = 15 mg/kg oral twice daily, 28 days, p < 0.05

O=C(Nc1cc(Cl)cc(C(F)(F)F)c1)OCCC(F)(F)F [ETG-5773]
Concentration in brain relative to liver (lower) [1]: 30 fold | Glucose excursion AUC (IPGTT) vs pair-fed control ([2]; 15 mg/kg oral twice daily): not significant | Glucose tolerance (IPGTT) vs vehicle control and pair-fed group ([2]; 15 mg/kg oral twice daily, 1 g/kg glucose i.p., all p < 0.05): significantly improved glucose tolerance | Plasma cholesterol concentrations [2, 4]: no effect | Plasma triglyceride concentrations vs vehicle [2, 4]: though not compared to the vehicle | Reduction in fasting insulin vs pair-fed ([2]; 15 mg/kg oral twice daily, 28 days, non-significant p = 0.2): 70% | Reduction in body weight vs vehicle group ([2]; 15 mg/kg oral twice daily, 28 days, p < 0.0001): 19% | Reduction in fasting blood glucose vs pair-fed [2, 5]: 25% | Reduction in hepatic triglyceride content vs pair-fed [2, 5]: 25% | Plasma triglyceride concentrations vs pair-fed [2, 6]: slightly increased | Reduction in body weight vs pair-fed group [2, 6]: 14% | Decrease in fasting blood glucose vs vehicle [2, 7]: 17% | Reduction in fasting insulin vs vehicle [2, 7]: 75% | Glucose excursion AUC (IPGTT) vs vehicle control ([2]; 15 mg/kg oral twice daily, p < 0.05): significantly reduced | Hepatic Fasn mRNA vs pair-fed group ([2]; 15 mg/kg twice daily, 28 days, p 0.09): trend for reduction | Hepatic Srebf1 mRNA vs vehicle control and pair-fed ([2]; 15 mg/kg twice daily, 28 days, p < 0.0001): significantly downregulated | Hepatic Scd1 mRNA vs vehicle control and pair-fed ([2]; 15 mg/kg twice daily, 28 days, p < 0.0001 vehicle, p < 0.001 pair-fed): significantly downregulated | Hepatic Acly mRNA vs vehicle control and pair-fed ([2]; 15 mg/kg twice daily, 28 days, p < 0.001 vehicle, p < 0.01 pair-fed): significantly downregulated | Hepatic Fasn mRNA vs vehicle control ([2]; 15 mg/kg twice daily, 28 days, p < 0.01): significantly downregulated | Hepatic Acc1 mRNA vs vehicle control ([2]; 15 mg/kg twice daily, 28 days, p < 0.05): significantly downregulated | Hepatic Acc1 mRNA vs pair-fed group ([2]; 15 mg/kg twice daily, 28 days, p < 0.1): trend for reduction | Body fat as percentage of body weight vs vehicle and pair-fed ([2]; 15 mg/kg twice daily, day 22): significant decrease | Lean mass as percentage of body weight vs vehicle and pair-fed ([2]; 15 mg/kg twice daily, day 22): significant increase | Fat mass (NMR) vs vehicle control and pair-fed group ([2]; 15 mg/kg twice daily, day 22, p < 0.0001 vs vehicle, p < 0.01 vs pair-fed): markedly reduced | Lean mass (NMR) vs vehicle control ([2]; 15 mg/kg twice daily, day 22, p < 0.01, not significant vs pair-fed): significantly lower | In vitro activity relative to PF-06649298 ([3]; ETG-5773 more active than PF-06649298): more than 100 fold | IC50 ([3]; HepG2, human NaCT, citrate substrate): 160 nM
